Results reported in ChEMBL document CHEMBL4311957, “Recent advances in natural antifungal flavonoids and their derivatives” (Bioorg Med Chem Lett, 2019).
≈ marks a conversion by molar mass, not a printed value. Blank lines part the entries; values can stand above or below the compound they belong to.

What was measured:
Format in all cases: functional
[1] = system: Trichophyton rubrum; experiment: Fungicidal activity against Trichophyton rubrum CCC 110 after 48 hrs; details: CCC 110, 48 h
[2] = system: Aspergillus niger; experiment: Fungicidal activity against Aspergillus niger ATCC 9029 after 48 hrs; details: ATCC 9029, 48 h
[3] = system: Cryptococcus neoformans; experiment: Fungicidal activity against Cryptococcus neoformans ATCC 32264 after 48 hrs; details: ATCC 32264, 48 h
[4] = system: Saccharomyces cerevisiae; experiment: Fungicidal activity against Saccharomyces cerevisiae ATCC 9763 after 48 hrs; details: ATCC 9763, 48 h
[5] = system: Cryptococcus neoformans; experiment: Fungicidal activity against Cryptococcus neoformans clinical isolate after 48 hrs
[6] = system: Aspergillus fumigatus; experiment: Fungicidal activity against Aspergillus fumigatus ATTC 26934 after 48 hrs; details: ATTC 26934, 48 h
[7] = system: Aspergillus flavus; experiment: Fungicidal activity against Aspergillus flavus ATCC 9170 after 48 hrs; details: ATCC 9170, 48 h
[8] = system: Candida albicans; experiment: Fungicidal activity against Candida albicans ATCC 10231 after 48 hrs; details: ATCC 10231, 48 h
[9] = system: Trichophyton mentagrophytes; experiment: Fungicidal activity against Trichophyton mentagrophytes ATCC 9972 after 48 hrs; details: ATCC 9972, 48 h
[10] = system: Nannizzia gypsea; experiment: Fungicidal activity against Microsporum gypseum CCC 115 after 48 hrs; details: CCC 115, 48 h
[11] = system: Cryptococcus neoformans; experiment: Antifungal activity against Cryptococcus neoformans after 48 hrs by broth micro dilution method
[12] = system: Candida albicans; experiment: Antifungal activity against Candida albicans after 48 hrs by broth micro dilution method
[13] = system: Candida parapsilosis; experiment: Antifungal activity against Candida parapsilosis after 48 hrs by broth micro dilution method; details: Lodderomyces parapsilosis
[14] = system: Nakaseomyces glabratus; experiment: Antifungal activity against Candida glabrata ATCC 90030 after 18 hrs by two-fold microdilution method; details: ATCC 90030, 18 h
[15] = system: Candida albicans; experiment: Antifungal activity against Candida albicans ATCC 90028 after 18 hrs by two-fold microdilution method; details: ATCC 90028, 18 h
[16] = system: Candida parapsilosis; experiment: Antifungal activity against Candida parapsilosis ATCC 22019 after 18 hrs by two-fold microdilution method; details: Lodderomyces parapsilosis, ATCC 22019, 18 h
[17] = system: Candida tropicalis; experiment: Antifungal activity against FLC-resistant Candida tropicalis
[18] = system: Nakaseomyces glabratus; experiment: Antifungal activity against Candida glabrata after 48 hrs by checkerboard method
[19] = system: Candida albicans; experiment: Antifungal activity against Candida albicans SC 5314 after 48 hrs by checkerboard method; details: SC 5314, 48 h
[20] = system: Candida albicans; experiment: Antifungal activity against Candida albicans clinical isolates after 48 hrs by checkerboard method

MIC [11]: 128 µg/mL (≈ 287 µM) | MIC [12]: > 256 µg/mL | MIC [13]: 64 µg/mL (≈ 143 µM)
Compound: O=C(O)[C@H]1O[C@@H](Oc2cc(O)c3c(=O)cc(-c4ccc(O)cc4)oc3c2)[C@H](O)[C@@H](O)[C@@H]1O

MIC [14]: 15.6 µg/mL (≈ 46.2 µM) | MIC [15]: 15.6 µg/mL (≈ 46.2 µM) | MIC [16]: 15.6 µg/mL (≈ 46.2 µM)
Compound: CC(C)=CCc1c(O)cc(O)c2c(=O)cc(-c3ccc(O)cc3)oc12

More lines, now with the values behind:

Compound: CN(C)CCCOc1cc(/C=C/C(=O)c2ccc(Cl)cc2)ccc1O
MFC [1]: 31.2 µg/mL (≈ 86.8 µM) | MFC [2]: 31.2 µg/mL (≈ 86.8 µM) | MFC [3]: 31.2 µg/mL (≈ 86.8 µM) | MFC [4]: 31.2 µg/mL (≈ 86.8 µM) | MFC [5]: 31.2 µg/mL (≈ 86.8 µM) | MFC [6]: 31.2 µg/mL (≈ 86.8 µM) | MFC [7]: 31.2 µg/mL (≈ 86.8 µM) | MFC [8]: 31.2 µg/mL (≈ 86.8 µM) | MFC [9]: 31.2 µg/mL (≈ 86.8 µM) | MFC [10]: 31.2 µg/mL (≈ 86.8 µM)

Compound: O=C(O[C@@H]1Cc2c(O)cc(O)cc2O[C@@H]1c1cc(O)c(O)c(O)c1)c1cc(O)c(O)c(O)c1 [EPIGALOCATECHIN GALLATE]
MIC [17]: ≤ 1 µg/mL

Compound: O=C(O)[C@H]1O[C@@H](Oc2cc3oc(-c4ccccc4)cc(=O)c3c(O)c2O)[C@H](O)[C@@H](O)[C@@H]1O [BAICALIN]
MIC [18]: 250 µg/mL | MIC [19]: 500 µg/mL | MIC [20]: 500 µg/mL
